Results taken from ChEMBL document CHEMBL1127637, “Antiplatelet agents based on cyclooxygenase inhibition without ulcerogenesis. Evaluation and synthesis of 4,5-bis(4-methoxyphenyl)-2-substituted-thiazoles” (J Med Chem, 1994).

Columns and labels:
Format in all cases: functional
[1] = species on record: Rattus norvegicus; assay: In vitro vasodilatory activity in isolated rat aorta; details: read-out: ED50 (the source's name)
[2] = species on record: Oryctolagus cuniculus; assay: In vitro antiplatelet activity against arachidonic acid induced malondialdehyde production
[3] = test system: Cavia porcellus; assay: Inhibitory effect on platelet aggregation induced by Arachidonic acid (AA) in guinea pigs ex vivo at a dose of 3.2 mg/Kg after 6 hr of oral administration
[4] = test system: Cavia porcellus; assay: Inhibitory effect on platelet aggregation induced by Collagen in guinea pigs ex vivo at a dose of 3.2 mg/Kg after 6 hr of oral administration
[5] = test system: Cavia porcellus; assay: Inhibitory effect on platelet aggregation induced by Collagen in guinea pigs ex vivo at a dose of 3.2 mg/Kg after 1 hr of oral administration
[6] = test system: Cavia porcellus; assay: Inhibitory effect on platelet aggregation induced by Arachidonic acid (AA) in guinea pigs ex vivo at a dose of 1 mg/Kg after 1 hr of oral administration
[7] = test system: Cavia porcellus; assay: Inhibitory effect on platelet aggregation induced by Arachidonic acid (AA) in guinea pigs ex vivo at a dose of 3.2 mg/Kg after 1 hr of oral administration
[8] = test system: Cavia porcellus; assay: Inhibitory effect on platelet aggregation induced by Collagen in guinea pigs ex vivo at a dose of 1 mg/Kg after 1 hr of oral administration
[9] = species on record: Oryctolagus cuniculus; assay: Inhibitory activity on the MDA production at 0.1 uM
[10] = species on record: Oryctolagus cuniculus; assay: Inhibitory activity on the MDA production at 0.01 uM
[11] = test system: Cavia porcellus; assay: Inhibitory effect on platelet aggregation induced by Collagen in guinea pigs ex vivo at a dose of 1 mg/Kg after 6 hr of oral administration
[12] = test system: Cavia porcellus; assay: Inhibitory effect on platelet aggregation induced by Arachidonic acid (AA) in guinea pigs ex vivo at a dose of 1 mg/Kg after 6 hr of oral administration
[13] = test system: Cavia porcellus; assay: ccInhibitory effect on platelet aggregation induced by Arachidonic acid (AA) in guinea pigs ex vivo at a dose of 3.2 mg/Kg after 6 hr of oral administration
[14] = test system: Cavia porcellus; assay: Inhibitory effect on platelet aggregation induced by Arachidonic acid in guinea pigs ex vivo at a dose of 3.2 mg/Kg after 1 hr of oral administration
[15] = test system: Cavia porcellus; assay: Inhibitory effect on platelet aggregation induced by Arachidonic acid (AA) in guinea pigs ex vivo at a dose of 1 mg/kg after 1 hr of oral administration
[16] = test system: Rattus norvegicus; assay: Compound was evaluated for collagen-induced platelet aggregation in rat ex vivo at the dose of 32 mg/Kg
[17] = test system: Rattus norvegicus; assay: Induction of acute stomach lesion at a dose of 100 mg/Kg
[18] = test system: Rattus norvegicus; assay: Induction of acute stomach lesion at a dose of 10 mg/Kg
[19] = test system: Rattus norvegicus; assay: Induction of acute stomach lesion at a dose of 32 mg/Kg
[20] = test system: Rattus norvegicus; assay: Induction of acute stomach lesion at a dose of 320 mg/Kg
[21] = test system: Rattus norvegicus; assay: Induction of acute stomach lesion at a dose of 100 mg/Kg was determined in 5 animals
[22] = test system: Rattus norvegicus; assay: Induction of acute stomach lesion at a dose of 32 mg/Kg was determined in 5 animals

Structure (SMILES)	EC50 [1] [µM]	IC50 [2] [µM]	other results
COc1ccc(-c2nc(C(=O)N3CCN(C(=O)NC(C)C)CC3)sc2-c2ccc(OC)cc2)cc1	15	> 1	–
COc1ccc(-c2nc(CN)sc2-c2ccc(OC)cc2)cc1	7.7	> 0.1	–
COc1ccc(-c2nc(C(=O)N3CCCCC3)sc2-c2ccc(OC)cc2)cc1	11	> 1	–
COc1ccc(-c2nc(/N=C(\N)N(C)C)sc2-c2ccc(OC)cc2)cc1	–	0.037	Inhibition % [3]: 100%; Inhibition % [4]: 98%; Inhibition % [5]: 100%; Inhibition % [6]: 48.5%; Inhibition % [7]: 100%; Inhibition % [8]: 33.1%
COc1ccc(-c2nc(C(=O)N(C)C)sc2-c2ccc(OC)cc2)cc1	–	< 0.1	inhibition in vivo at 3.2 mg/kg [3]: 89%; inhibition in vivo at 3.2 mg/kg [4]: 4.1%; Inhibition [9]: 51.4%
COc1ccc(-c2nc(C(=O)NCCc3cccnc3)sc2-c2ccc(OC)cc2)cc1	20	< 0.1	Inhibition [9]: 56.6%
COc1ccc(-c2nc(C3=CCN(C)CC3)sc2-c2ccc(OC)cc2)cc1	5.9	< 0.01	inhibition in vivo at 3.2 mg/kg [3]: 100%; inhibition in vivo at 3.2 mg/kg [4]: 69.3%
CCOC(=O)/C(C#N)=C/c1nc(-c2ccc(OC)cc2)c(-c2ccc(OC)cc2)s1	> 100	< 0.01	–
COc1ccc(-c2nc(/C=C/C(=O)O)sc2-c2ccc(OC)cc2)cc1	55	> 0.1	–
COc1ccc(-c2nc(CNC(=O)N3CCOCC3)sc2-c2ccc(OC)cc2)cc1	12	0.66	–
COc1ccc(-c2nc(/C=C/C(=O)N3CCN(C)CC3)sc2-c2ccc(OC)cc2)cc1	20	> 1	–
COc1ccc(-c2nc(C(=O)N3CCOCC3)sc2-c2ccc(OC)cc2)cc1	< 100	< 0.01	Inhibition [10]: 74.8%
COc1ccc(-c2nc(CNC(=O)CSc3ccccc3)sc2-c2ccc(OC)cc2)cc1	4.2	< 0.1	inhibition in vivo at 1 mg/kg [11]: -2.6%; Inhibition [9]: 73.6%; inhibition in vivo at 1 mg/kg [12]: 16.5%
COc1ccc(-c2nc(C3=NNC(=O)CC3)sc2-c2ccc(OC)cc2)cc1	–	> 1	–
CCOC(=O)/C=C/c1nc(-c2ccc(OC)cc2)c(-c2ccc(OC)cc2)s1	> 100	0.02	–
COc1ccc(-c2nc(N=C(N)N)sc2-c2ccc(OC)cc2)cc1	2	31	–
COc1ccc(-c2nc(C(N)=O)sc2-c2ccc(OC)cc2)cc1	–	> 1	–
COc1ccc(-c2nc(C(=O)N3CCCN(C)CC3)sc2-c2ccc(OC)cc2)cc1	4.3	> 0.1	–
CCN(CC)C(=O)c1nc(-c2ccc(OC)cc2)c(-c2ccc(OC)cc2)s1	14	< 0.01	Inhibition [10]: 65%
COc1ccc(-c2nc(CNC(=O)NC(C)C)sc2-c2ccc(OC)cc2)cc1	5.7	0.042	inhibition in vivo at 3.2 mg/kg [4]: 100%; inhibition in vivo at 1 mg/kg [11]: 100%; inhibition in vivo at 1 mg/kg [12]: 100%; inhibition in vivo at 3.2 mg/kg [13]: 100%
CNC(=O)NCc1nc(-c2ccc(OC)cc2)c(-c2ccc(OC)cc2)s1	15	0.022	–
C/N=C(/NC)Nc1nc(-c2ccc(OC)cc2)c(-c2ccc(OC)cc2)s1	–	0.97	–

Structure (SMILES)	EC50 [1] [µM]	IC50 [2] [µM]	other results
CC/N=C(/N)Nc1nc(-c2ccc(OC)cc2)c(-c2ccc(OC)cc2)s1	–	> 0.1	–
COc1ccc(-c2nc(/N=C(\N)NC3CCCCC3)sc2-c2ccc(OC)cc2)cc1	> 100	> 1	–
COc1ccc(-c2nc(C(=O)NCCN3CCOCC3)sc2-c2ccc(OC)cc2)cc1	8.7	> 1	–
CCOC(=O)C1=C(C)N=C(C)/C(=C(/O)OCC)C1c1nc(-c2ccc(OC)cc2)c(-c2ccc(OC)cc2)s1 (stereo unspecified)	> 32	< 0.1	–
COc1ccc(-c2nc(/N=C(\N)n3ccnc3)sc2-c2ccc(OC)cc2)cc1	–	> 0.1	–
COc1ccc(-c2nc(CNC(=O)c3cccnc3)sc2-c2ccc(OC)cc2)cc1	–	0.025	Inhibition % [3]: 40.3%; Inhibition % [4]: 37.4%
COc1ccc(-c2nc(C(=O)N3CCCCC3CCO)sc2-c2ccc(OC)cc2)cc1 (stereo unspecified)	6.8	0.045	Inhibition % [3]: 100%; Inhibition % [4]: 100%
COc1ccc(-c2nc(CN(C)C)sc2-c2ccc(OC)cc2)cc1	8.4	0.096	Inhibition % [3]: 0%; Inhibition % [4]: 0%; Inhibition % [5]: 100%; Inhibition % [7]: 100%
COc1ccc(-c2nc(CNC(=O)C3=NNC(=O)CC3)sc2-c2ccc(OC)cc2)cc1	–	0.055	inhibition in vivo at 3.2 mg/kg [3]: 100%; inhibition in vivo at 3.2 mg/kg [4]: 94.1%; inhibition in vivo at 1 mg/kg [11]: 84.3%; inhibition in vivo at 1 mg/kg [12]: 100%
COc1ccc(-c2nc(CNC(C)=O)sc2-c2ccc(OC)cc2)cc1	8.1	0.015	Inhibition % [11]: 26.6%; Inhibition % [12]: 60.9%
CNC(=N)Nc1nc(-c2ccc(OC)cc2)c(-c2ccc(OC)cc2)s1	1.2	0.062	Inhibition % [5]: 76.2%; Inhibition % [14]: 100%; Inhibition % [8]: 9%; Inhibition % [15]: 100%
COc1ccc(-c2nc(C(=O)N3CCNC(CCO)C3)sc2-c2ccc(OC)cc2)cc1 (stereo unspecified)	9.5	> 1	–
COc1ccc(-c2nc(CNC(=O)CSC)sc2-c2ccc(OC)cc2)cc1	6	< 0.1	inhibition in vivo at 1 mg/kg [11]: -13.3%; Inhibition [9]: 73.3%; inhibition in vivo at 1 mg/kg [12]: -3.9%
COc1ccc(-c2nc(CCC(=O)O)sc2-c2ccc(OC)cc2)cc1	> 100	< 0.1	–
COc1ccc(-c2nc(N3CCN(C)CC3)sc2-c2ccc(OC)cc2)cc1	5.2	0.039	inhibition in vivo at 1 mg/kg [11]: 65.4%; inhibition in vivo at 1 mg/kg [12]: 60.9%
COc1ccc(-c2nc(C(=O)N=C(N)N)sc2-c2ccc(OC)cc2)cc1	> 100	> 0.1	–
COc1ccc(-c2nc(/N=C(\N)NC(C)C)sc2-c2ccc(OC)cc2)cc1	9.1	> 0.1	–
CCOC(=O)CC(c1nc(-c2ccc(OC)cc2)c(-c2ccc(OC)cc2)s1)N1CCN(C)CC1 (stereo unspecified)	2.6	> 1	–
CC(=O)Oc1ccccc1C(=O)O [ASPIRIN]	> 600	16	Inhibition % [5]: 9%; ED50 [16]: 8.4 mg/kg; Ulcer index [17]: 2.2; Ulcer index [18]: 0.6; Inhibition % [7]: 64%; Ulcer index [19]: 2; Ulcer index [20]: 3.8
COc1ccc(-c2nc(C(F)(F)F)sc2-c2ccc(OC)cc2)cc1 [ITAZIGREL]	> 300	0.0056	Ulcer index [21]: 1.4; Inhibition % [11]: 79%; Ulcer index [22]: 0.4; Inhibition % [6]: 100%; Inhibition % [8]: 100%; Inhibition % [12]: 100%
Cc1cc(/N=C(\Nc2nccs2)NC2CCCCC2)c2ccccc2n1 [TIMEGADINE]	2.5	0.031	Inhibition % [6]: 14.5%; Inhibition % [7]: 52.4%
